The values that follow come from US20230322789A1, “PYRAZOLOPYRIDAZINONE COMPOUND, AND PHARMACEUTICAL COMPOSITION AND USE THEREOF” (BroadenBio Co., Ltd., priority 2020, published 2023).

In assay [1] the test system is Human Jurkat-E6-1 cells. The assay can be described thus: Measurement of IL-2 secretion of Jurkat cells by ELISA. Type of assay: cell-based. The conditions noted are these: Homo sapiens, Jurkat E6.1, anti-CD3/anti-CD28 stimulation 24 hours, read-out: Percentage of the amount of IL-2 secreted from compound treated/DMSO-treated cells; for activity at 3 µM: test compound 3.0 μM; for activity at 1 µM: test compound 1.0 μM. In a few lines:
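Jurkat-E6-1 cells pre-incubated with compound for 30 min at 37° C, then stimulated 24 h with plate-bound anti-CD3 plus soluble anti-CD28. Secreted IL-2 in medium quantified by sandwich ELISA against a standard curve; expressed as percent of DMSO-treated cells.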

Assay [2] has as its target HPK1 (Homo sapiens (Human), UniProt Q92918). As to the kind of experiment: HPK1 kinase activity inhibition test (ADP-Glo, luminescence). In kind it is biochemical. Conditions: HPK1 5 nM, ATP 2 μM, read-out: IC50, inhibitory effects of compounds on HPK1 kinase activity. In a few lines:
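HPK1 autophosphorylation was run without added substrate. Kinase and compound were preincubated 10 min at 25° C., then ATP was added for 60 min at 25° C. ADP formed was detected by ADP-Glo luminescence, and IC50 was taken from a four-parameter nonlinear fit.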

Chain of HPK1 (Q92918 whole entry): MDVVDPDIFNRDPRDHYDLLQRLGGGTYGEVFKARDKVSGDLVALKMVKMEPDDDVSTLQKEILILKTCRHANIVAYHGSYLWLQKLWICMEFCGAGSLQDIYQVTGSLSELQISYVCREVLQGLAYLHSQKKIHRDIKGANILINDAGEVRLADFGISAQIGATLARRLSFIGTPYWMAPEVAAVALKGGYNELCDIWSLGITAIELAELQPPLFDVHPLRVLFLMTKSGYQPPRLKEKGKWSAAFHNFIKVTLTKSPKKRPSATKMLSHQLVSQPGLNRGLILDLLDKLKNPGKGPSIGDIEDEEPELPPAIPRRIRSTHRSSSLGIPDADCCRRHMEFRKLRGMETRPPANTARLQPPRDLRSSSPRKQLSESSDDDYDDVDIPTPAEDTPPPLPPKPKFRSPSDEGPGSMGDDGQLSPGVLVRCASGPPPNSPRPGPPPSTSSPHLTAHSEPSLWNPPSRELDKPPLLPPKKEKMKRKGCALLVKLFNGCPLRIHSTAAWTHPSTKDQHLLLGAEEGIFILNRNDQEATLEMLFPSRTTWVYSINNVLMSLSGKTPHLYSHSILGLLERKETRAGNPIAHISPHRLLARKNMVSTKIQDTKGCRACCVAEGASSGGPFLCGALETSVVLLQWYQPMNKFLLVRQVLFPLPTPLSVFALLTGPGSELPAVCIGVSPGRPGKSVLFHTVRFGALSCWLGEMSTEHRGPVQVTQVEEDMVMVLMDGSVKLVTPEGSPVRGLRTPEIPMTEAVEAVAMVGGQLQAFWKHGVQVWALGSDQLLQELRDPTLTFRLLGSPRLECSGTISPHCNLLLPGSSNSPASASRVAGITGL

With `Cc1cccc(F)c1-n1nc2c(-c3ccc(N4CCN(C)C(C(C)(C)O)C4)cc3)n[nH]c2cc1=O` (stereo not shown) [Compound 125, 5-(2-fluoro-6-methylphenyl)-3-(4-(3-(2-hydroxylprop-2-yl)-4-methylpiperazin-1-yl)phenyl)-1H-pyrazolo[4,3-c]pyridazin-6(5H)-one], the activity at 3 µM in assay [1] worked out at 216%. The IC50 in assay [2] was not above 50 nM.

Consider `COc1cccc(F)c1-n1nc2c(-c3ccc(N4CCN(C)C(C(C)(C)O)C4)cc3)n[nH]c2cc1=O` (stereo not shown) [Compound 126], for which the activity at 3 µM in assay [1] came out at 428%. The concentration for half-maximal inhibition (IC50) in assay [2] was not above 50 nM.

For the compound `COc1cccc(F)c1-n1nc2c(-c3ccc(N4CCN(C)C(C(C)(C)OC)C4)cc3)n[nH]c2cc1=O` (stereo not shown) [Compound 127, 5-(2-fluoro-6-methoxyphenyl)-3-(4-(3-(2-methoxyprop-2-yl)-4-methylpiperazin-1-yl)phenyl)-1H-pyrazolo[4,3-c]pyridazin-6(5H)-one], the activity at 3 µM in assay [1] was found to be 758%. For the same compound, in assay [2], the IC50 was not above 50 nM.

Turning to `Cc1cccc(F)c1-n1nc2c(-c3ccc(N4CCN(C)C(CO)C4)nc3)n[nH]c2cc1=O` (stereo not shown) [Compound 128, 5-(2-fluoro-6-methylphenyl)-3-(6-(3-(hydroxymethyl)-4-methylpiperazin-1-yl)pyrid-3-yl)-1H-pyrazolo[4,3-c]pyridazin-6(5H)-one], the activity at 3 µM in assay [1] came to 472%. Besides, in assay [2], the concentration for half-maximal inhibition (IC50) was not above 50 nM.

Regarding `Cc1cccc(F)c1-n1nc2c(-c3ccc(N4CCN(C)CC4CO)cc3)n[nH]c2cc1=O` (stereo not shown) [Compound 130, 5-(2-fluoro-6-methylphenyl)-3-(4-(2-(hydroxymethyl)-4-methylpiperazin-1-yl)phenyl)-1H-pyrazolo[4,3-c]pyridazin-6(5H)-one], the activity at 3 µM in assay [1] was 454%. For the same compound, the IC50 in assay [2] was not above 50 nM.

Turning to `Cc1cccc(F)c1-n1nc2c(-c3ccc(N4CCN5CCOC[C@@H]5C4)cc3)n[nH]c2cc1=O` [Compound 133, (S)-5-(2-fluoro-6-methylphenyl)-3-(4-(hexahydropyrazino[2,1-c][1,4]oxazin-8(1H)-yl)phenyl)-1H-pyrazolo[4,3-c]pyridazin-6(5H)-one], the activity at 3 µM in assay [1] worked out at 800%. Moreover, the half-maximal inhibitory concentration (IC50) in assay [2] was not above 50 nM.

For the compound `Cc1cccc(F)c1-n1nc2c(-c3ccc(N4CCN5CCOC[C@H]5C4)cc3)n[nH]c2cc1=O` [Compound 134, (R)-5-(2-fluoro-6-methylphenyl)-3-(4-(hexahydropyrazino[2,1-c][1,4]oxazin-8(1H)-yl)phenyl)-1H-pyrazolo[4,3-c]pyridazin-6(5H)-one], in assay [1], the activity at 3 µM was found to be 527%. Also, the half-maximal inhibitory concentration (IC50) in assay [2] is not above 50 nM.

On to `COc1cccc(F)c1-n1nc2c(-c3ccc(N4CCN5CCOC[C@@H]5C4)cc3)n[nH]c2cc1=O` [Compound 135, (S)-5-(2-fluoro-6-methoxyphenyl)-3-(4-(hexahydropyrazino[2,1-c][1,4]oxazin-8(1H)-yl)phenyl)-1H-pyrazolo[4,3-c]pyridazin-6(5H)-one], for which the activity at 3 µM in assay [1] turned out to be 964%. The half-inhibitory concentration (IC50) in assay [2] was not above 50 nM.

As to `COc1cccc(F)c1-n1nc2c(-c3ccc(N4CCN5CCOC[C@H]5C4)cc3)n[nH]c2cc1=O` [Compound 136, (R)-5-(2-fluoro-6-methoxyphenyl)-3-(4-(hexahydropyrazino[2,1-c][1,4]oxazin-8(1H)-yl)phenyl)-1H-pyrazolo[4,3-c]pyridazin-6(5H)-one], the activity at 3 µM in assay [1] is 702%. For the same compound, the IC50 in assay [2] is not above 50 nM.

Take `Cc1cccc(F)c1-n1nc2c(-c3ccc(N4CCn5ccnc5C4)cc3)n[nH]c2cc1=O` [Compound 137, 3-(4-(5,6-dihydroimidazolo[1,2-a]pyrazin-7(8H)-yl)phenyl)-5-(2-fluoro-6-methylphenyl)-1H-pyrazolo[4,3-c]pyridazin-6(5H)-one]: in assay [1], the activity at 3 µM was determined as 291%. Moreover, in assay [2], the IC50 was not above 50 nM.

On to `Cc1cccc(F)c1-n1nc2c(-c3ccc(N4CCC(O)CC4)cc3)n[nH]c2cc1=O` [Compound 138, 5-(2-fluoro-6-methylphenyl)-3-(4-(4-hydroxylpiperidin-1-yl)phenyl)-1H-pyrazolo[4,3-c]pyridazin-6(5H)-one], for which the activity at 3 µM in assay [1] was determined as 873%. Further, the concentration for half-maximal inhibition (IC50) in assay [2] was not above 50 nM.

Regarding `COc1cccc(F)c1-n1nc2c(-c3ccc(N4CCC(O)CC4)cc3)n[nH]c2cc1=O` [Compound 139, 5-(2-fluoro-6-methoxyphenyl)-3-(4-(4-hydroxylpiperidin-1-yl)phenyl)-1H-pyrazolo[4,3-c]pyridazin-6(5H)-one], the activity at 3 µM in assay [1] is 315%. In addition, the IC50 in assay [2] was not above 50 nM.

Take `COc1cccc(F)c1-n1nc2c(-c3ccc(N4CCC(C)(O)CC4)cc3)n[nH]c2cc1=O` [Compound 140, 5-(2-fluoro-6-methoxyphenyl)-3-(4-(4-hydroxyl-4-methylpiperidin-1-yl)phenyl)-1H-pyrazolo[4,3-c]pyridazin-6(5H)-one]: in assay [1], the activity at 3 µM was determined as 436%. Besides, in assay [2], the IC50 is not above 50 nM.

Consider `COc1cccc(F)c1-n1nc2c(-c3ccc(N4CCC(C)(OC)CC4)cc3)n[nH]c2cc1=O` [Compound 141, 5-(2-fluoro-6-methoxyphenyl)-3-(4-(4-methoxy-4-methylpiperidin-1-yl)phenyl)-1H-pyrazolo[4,3-c]pyridazin-6(5H)-one], for which the activity at 3 µM in assay [1] was found to be 390%. Besides, in assay [2], the IC50 was not above 50 nM.

On to `Cc1cccc(F)c1-n1nc2c(-c3ccc(N4CCC(N5CCOCC5)CC4)cc3)n[nH]c2cc1=O` [Compound 142, 5-(2-fluoro-6-methylphenyl)-3-(4-(4-morpholinopiperidin-1-yl)phenyl)-1H-pyrazolo[4,3-c]pyridazin-6(5H)-one], for which, in assay [1], the activity at 3 µM came to 708%. For the same compound, the 50% inhibitory concentration (IC50) in assay [2] was not above 50 nM.

On to `Cc1cccc(F)c1-n1nc2c(-c3ccc(N4CCC(N5CCN(C)CC5)CC4)cc3)n[nH]c2cc1=O` [Compound 143, 5-(2-fluoro-6-methylphenyl)-3-(4-(4-(4-methylpiperazin-1-yl)piperidin-1-yl)phenyl)-1H-pyrazolo[4,3-c]pyridazin-6(5H)-one], for which, in assay [1], the activity at 3 µM was found to be 786%. In assay [2], the half-maximal inhibitory concentration (IC50) was not above 50 nM.

As for `COc1cccc(F)c1-n1nc2c(-c3ccc(N4CCC(N5CCOCC5)CC4)cc3)n[nH]c2cc1=O` [Compound 144, 5-(2-fluoro-6-methoxyphenyl)-3-(4-(4-morpholinopiperidin-1-yl)phenyl)-1H-pyrazolo[4,3-c]pyridazin-6(5H)-one], in assay [1], the activity at 3 µM was found to be 716%. The IC50 in assay [2] was not above 50 nM.

As for `COc1cccc(F)c1-n1nc2c(-c3ccc(N4CCC(N5CCN(C)CC5)CC4)cc3)n[nH]c2cc1=O` [Compound 145, 5-(2-fluoro-6-methoxyphenyl)-3-(4-(4-(4-methylpiperazin-1-yl)piperidin-1-yl)phenyl)-1H-pyrazolo[4,3-c]pyridazin-6(5H)-one], in assay [1], the activity at 3 µM worked out at 776%. Moreover, the IC50 in assay [2] is not above 50 nM.

`COc1cccc(F)c1-n1nc2c(-c3ccc(N4CCC(C)(N)CC4)cc3)n[nH]c2cc1=O` [Compound 146, 3-(4-(4-amino-4-methylpiperidin-1-yl)phenyl)-5-(2-fluoro-6-methoxyphenyl)-1H-pyrazolo[4,3-c]pyridazin-6(5H)-one]: the activity at 3 µM in assay [1] turned out to be 537%. In addition, the IC50 in assay [2] was not above 50 nM.

For the compound `COc1cccc(F)c1-n1nc2c(-c3ccc(N4CCC(C)(N(C)C)CC4)cc3)n[nH]c2cc1=O` [Compound 147, 3-(4-(4-(dimethylamino)-4-methylpiperidin-1-yl)phenyl)-5-(2-fluoro-6-methoxyphenyl)-1H-pyrazolo[4,3-c]pyridazin-6(5H)-one], in assay [1], the activity at 3 µM is 616%. For the same compound, the IC50 in assay [2] is not above 50 nM.

Regarding `COc1cccc(F)c1-n1nc2c(-c3cnc(N4CCOCC4)s3)n[nH]c2cc1=O` [Compound 148], the activity at 1 µM in assay [1] is 531%. For the same compound, the IC50 in assay [2] is not above 50 nM.

As for `COc1ccncc1-n1nc2c(-c3ccc(C4=CCN(C)CC4)cc3)n[nH]c2cc1=O` [Compound 151, 5-(4-methoxypyrid-3-yl)-3-(4-(1-methyl-1,2,3,6-tetrahydropyridin-4-yl)phenyl)-1H-pyrazolo[4,3-c]pyridazin-6(5H)-one], the activity at 3 µM in assay [1] stood at 230%. The IC50 in assay [2] lay within 50 to 500 nM.

Regarding `COc1cccc(F)c1-n1nc2c(-c3ccc(N4CCN(C)CC4)cc3)n[nH]c2c(C)c1=O` [Compound 154, 5-(2-fluoro-6-methoxyphenyl)-7-methyl-3-(4-(4-methylpiperazin-1-yl)phenyl)-1H-pyrazolo[4,3-c]pyridazin-6(5H)-one], the activity at 1 µM in assay [1] was 382%. In addition, in assay [2], the concentration for half-maximal inhibition (IC50) is 50 to 500 nM.

Take `COc1cccc(F)c1-n1nc2c(-c3ccc(N4CCOCC4)cc3)n[nH]c2c(C)c1=O` [Compound 155, 5-(2-fluoro-6-methoxyphenyl)-7-methyl-3-(4-morpholinophenyl)-1H-pyrazolo[4,3-c]pyridazin-6(5H)-one]: the activity at 3 µM in assay [1] is 435%. Also, the concentration for half-maximal inhibition (IC50) in assay [2] was in the range of 50 to 500 nM.

Turning to `Cc1cccc(F)c1-n1nc2c(-c3ccc4c(c3)CN(C)CC4)n[nH]c2cc1=O` [Compound 156, 5-(2-fluoro-6-methylphenyl)-3-(2-methyl-1,2,3,4-tetrahydroisoquinolin-7-yl)-1H-pyrazolo[4,3-c]pyridazin-6(5H)-one], in assay [1], the activity at 3 µM stood at 849%. In assay [2], the IC50 was not above 50 nM.

With `[2H]C([2H])([2H])N1CCc2ccc(-c3n[nH]c4cc(=O)n(-c5c(C)cccc5F)nc34)cc2C1` [Compound 157, 5-(2-fluoro-6-methylphenyl)-3-(2-(methyl-d3)-1,2,3,4-tetrahydroisoquinolin-7-yl)-1H-pyrazolo[4,3-c]pyridazin-6(5H)-one], the activity at 3 µM in assay [1] came out at 935%. Moreover, in assay [2], the half-inhibitory concentration (IC50) was not above 50 nM.
